# From patent US20260049068A1, “Substituted Tetrazolyl Compounds Useful as T Cell Activators” (BRISTOL-MYERS SQUIBB COMPANY, priority 2022, published 2026)
# What was measured:
# DGKα-YFP in Jurkat cells = DGKα-YFP in Jurkat cells (Homo sapiens (Human), UniProt P23743); assay: In vitro DGKα translocation assay; type: cell-based; settings: 1 hour at 37° C., top concentration 10 μM, read-out: DGKalpha Translocation EC50
# Text: Jurkat cells were transduced with lentiviral constructs overexpressing DGKα-YFP (N-terminal tagged), selected by puromycin, and were FACs sorted to establish stable lines expressing each isoform (Jurkat-DGKα-YFP=BXA-212700-01-001, Jurkat-DGKz-YFP=BXA-212701-01-001). Cell lines were maintained in growth media (RPMI supplemented with 10% FBS and pen/strep). All translocation assays were run in assay media (RPMI supplemented with 10% FBS and no antibiotics).
# For translocation assays cells were plated onto Perkin Elmer CellCarrier-384 Ultra Microplates (Perkin Elmer cat #6057500) at a density of 30,000 cells/well, in a volume of 40 μL of assay media. Compounds were then transferred to the cells by an Echo Acoustic Liquid Handler (Echo 655). […] Treated cells were then incubated at 37° C. for 1 hour. Cells were then fixed with 4% formaldehyde (Thermo cat #28906) for 15 minutes, centrifuged briefly to increase cell retention (250 rpm for 5 minutes), and then washed 3× with 50 μL PBS. Cells were then stained with Hoechst, and washed 2× with 50 ul PBS. Next, 50 μL PBS was added to each well, plates were sealed, and plates were imaged on an Opera Phenix High Content screening system. Imaging was done with the 40× water objective. The YFP channel was set at 100% power for […], 10 regions/well were imaged and analyzed. Data analysis was done with Columbus Image Analysis software (Perk-in Elmer).
# [1] = target: Near full length human DGKα(S9-S727) (Homo sapiens (Human), UniProt P23743); assay: DGKα (Near Full Length) ADP Glo assay; type: biochemical; settings: extruded liposomes 5% or 10% DAG, 150 μM ATP, 5 nM enzyme; read-out: Near Full Length DGKalpha ADPGLO IC50
# Near full length human DGKα(S9-S727), sequence (P23743 9-727): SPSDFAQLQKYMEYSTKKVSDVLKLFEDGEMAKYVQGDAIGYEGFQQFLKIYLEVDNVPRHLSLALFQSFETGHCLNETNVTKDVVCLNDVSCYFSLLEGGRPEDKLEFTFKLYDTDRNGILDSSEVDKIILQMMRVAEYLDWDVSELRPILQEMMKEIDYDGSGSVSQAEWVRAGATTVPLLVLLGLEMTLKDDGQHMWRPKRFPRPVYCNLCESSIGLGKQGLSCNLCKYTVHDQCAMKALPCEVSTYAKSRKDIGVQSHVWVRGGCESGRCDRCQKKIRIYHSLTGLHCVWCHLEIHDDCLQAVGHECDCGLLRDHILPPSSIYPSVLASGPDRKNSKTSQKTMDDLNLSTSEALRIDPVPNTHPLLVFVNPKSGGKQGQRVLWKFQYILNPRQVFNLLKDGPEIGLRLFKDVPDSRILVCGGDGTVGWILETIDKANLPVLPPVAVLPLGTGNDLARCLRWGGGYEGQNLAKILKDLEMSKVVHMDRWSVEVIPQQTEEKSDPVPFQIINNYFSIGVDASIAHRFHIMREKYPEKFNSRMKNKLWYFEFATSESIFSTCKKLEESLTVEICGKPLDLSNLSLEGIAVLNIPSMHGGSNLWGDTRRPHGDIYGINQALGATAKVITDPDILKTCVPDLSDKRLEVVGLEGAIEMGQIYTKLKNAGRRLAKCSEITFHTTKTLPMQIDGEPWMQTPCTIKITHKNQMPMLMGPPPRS
# Experimental: The reactions were carried out at 150 μM ATP.
# Luminescence was recorded using an EnVision microplate reader.
# Full length human DGKα = Full length human DGKα (Homo sapiens (Human), UniProt P23743);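 further: ADP-Glo luminescence assay of ADP formed by 5 nM full-length DGKα on extruded PS/DAG/PC liposomes with 150 µM ATP, 1 h reaction, 11-point inhibitor titration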
# Full length human DGKα, sequence (P23743 other isoform, or with tags, fused parts or gaps): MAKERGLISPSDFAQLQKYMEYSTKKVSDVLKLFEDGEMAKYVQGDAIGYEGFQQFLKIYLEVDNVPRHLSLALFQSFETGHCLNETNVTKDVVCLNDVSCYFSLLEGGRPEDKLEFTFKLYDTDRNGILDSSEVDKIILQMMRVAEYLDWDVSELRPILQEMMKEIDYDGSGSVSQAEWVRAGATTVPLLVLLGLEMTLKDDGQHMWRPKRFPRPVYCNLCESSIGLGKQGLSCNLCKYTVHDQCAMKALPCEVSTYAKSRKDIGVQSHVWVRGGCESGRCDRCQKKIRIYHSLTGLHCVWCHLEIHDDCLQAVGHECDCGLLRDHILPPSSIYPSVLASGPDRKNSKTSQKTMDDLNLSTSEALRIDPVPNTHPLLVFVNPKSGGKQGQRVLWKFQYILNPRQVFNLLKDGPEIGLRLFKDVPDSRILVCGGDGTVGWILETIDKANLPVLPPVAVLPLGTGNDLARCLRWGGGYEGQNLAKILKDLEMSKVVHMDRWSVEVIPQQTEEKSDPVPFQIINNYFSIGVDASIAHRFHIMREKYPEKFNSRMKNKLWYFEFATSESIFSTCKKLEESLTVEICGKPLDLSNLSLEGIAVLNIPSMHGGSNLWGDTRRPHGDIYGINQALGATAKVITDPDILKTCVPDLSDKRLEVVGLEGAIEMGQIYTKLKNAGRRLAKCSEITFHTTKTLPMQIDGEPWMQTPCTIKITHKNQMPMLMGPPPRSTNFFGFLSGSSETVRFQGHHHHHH
# Experimental: The DGKα (Full Length and Near Full Length) ADP Glo assays were performed using an extruded liposome prep at either 5% DAG or 10% DAG. The Enzymatic reactions were carried out in 50 mM MOPS pH 7.5, 100 mM NaCl, 10 mM MgCl2, 1 μM CaCl2, and 1 mM DTT (assay buffer). The lipid substrate concentrations were 1.9 mM PS, either 0.25 mM DAG (5% liposome prep) or 0.5 mM DAG (10% liposome prep), and 2.7 mM PC for the extruded liposome reactions. The reactions were carried out at 150 μM ATP. The enzyme concentrations for the DGKα(Near Full Length) and DGKα(FL) were 5 nM.
# The compound inhibition studies were carried out as follows: 25 nL droplets of each test compound (11 point, 3-fold dilution series for each compound) solubilized in DMSO were transferred to wells of a white 1536 well plate (Corning 3725). A 5 mL enzyme/substrate (substrate being the 5× or 10× liposome preparation) solution at 2× final reaction concentrations was prepared by combining 5 ml of the extruded liposome preparation with 10 nM (2× final) DGKα(Near Full Length) or DGKα(Full Length) prepared as described below) and incubated at room temperature for 10 minutes. Next, 1 μL of the 2× enzyme/substrate solution was added to wells containing the test compound and reactions were initiated with the addition of 1 μL 300 uM ATP. Substrate only was added to DMSO only wells for background measurements. The reactions were allowed to proceed for 1 hr, after which 2 μL Glo Reagent (Promega V9101) was added and incubated for 40 minutes. Next, 4 μL Kinase Detection Reagent was added and incubated for 30 minutes. Luminescence was recorded using an EnVision microplate reader. […] The compounds were evaluated at 11 concentrations to determine IC50.
# DGKα-YFP in Jurkat cells, sequence (P23743 whole entry, canonical isoform): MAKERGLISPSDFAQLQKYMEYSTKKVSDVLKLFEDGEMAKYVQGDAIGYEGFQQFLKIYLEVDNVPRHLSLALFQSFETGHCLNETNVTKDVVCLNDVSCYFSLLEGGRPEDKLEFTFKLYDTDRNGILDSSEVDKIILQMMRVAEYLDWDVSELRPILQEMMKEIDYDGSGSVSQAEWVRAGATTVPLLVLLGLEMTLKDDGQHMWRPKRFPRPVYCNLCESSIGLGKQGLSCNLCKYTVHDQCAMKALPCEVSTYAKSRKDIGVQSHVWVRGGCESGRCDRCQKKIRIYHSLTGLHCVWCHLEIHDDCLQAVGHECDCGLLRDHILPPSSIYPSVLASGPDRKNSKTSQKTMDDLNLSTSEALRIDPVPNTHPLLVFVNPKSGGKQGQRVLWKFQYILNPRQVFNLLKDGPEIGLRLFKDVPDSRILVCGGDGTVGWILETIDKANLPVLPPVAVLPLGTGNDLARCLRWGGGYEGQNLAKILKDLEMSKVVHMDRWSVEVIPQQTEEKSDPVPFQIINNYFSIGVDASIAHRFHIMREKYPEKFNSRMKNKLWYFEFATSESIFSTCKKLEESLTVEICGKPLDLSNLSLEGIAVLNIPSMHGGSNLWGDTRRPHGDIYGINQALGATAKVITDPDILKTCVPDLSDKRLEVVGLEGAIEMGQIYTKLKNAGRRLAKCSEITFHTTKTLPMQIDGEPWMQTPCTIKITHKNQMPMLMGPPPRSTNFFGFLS
SMILES,EC50 (DGKα-YFP in Jurkat cells) [µM],IC50 [1] [µM],IC50 (Full length human DGKα) [µM]
"CC1CCC(N(C)Cc2nnnn2-c2cccc([N+](=O)[O-])c2)CC1 (stereo not drawn) [Example 2, N,4-dimethyl-N-((1-(3-nitrophenyl)-1H-tetrazol-5-yl)methyl)cyclohexan-1-amine]",0.3,–,–
"CN(Cc1nnnn1-c1ccc(C(F)(F)F)c(C#N)c1)C1CCCCC1 [Example 4, 5-(5-((cyclohexyl(methyl)amino)methyl)-1H-tetrazol-1-yl)-2-(trifluoromethyl)benzonitrile]",0.82,0.28,0.027
"CCCCN(Cc1nnnn1-c1ccc(Cl)c(C#N)c1)C1CCCCC1 [Example 5, 5-(5-((butyl(cyclohexyl)amino)methyl)-1H-tetrazol-1-yl)-2-chlorobenzonitrile]",1.2,1.4,1.1
"C=CCN(Cc1nnnn1-c1ccc(Cl)c(C#N)c1)C1CCCCC1 [Example 6, 5-(5-((allyl(cyclohexyl)amino)methyl)-1H-tetrazol-1-yl)-2-chlorobenzonitrile]",0.19,0.1,0.11
"N#Cc1cc(-n2nnnc2CN(CCO)C2CCCCC2)ccc1Cl [Example 7, 2-chloro-5-(5-((cyclohexyl(2-hydroxyethyl)amino)methyl)-1H-tetrazol-1-yl)benzonitrile]",> 10,3.4,4.7
"CCCN(Cc1nnnn1-c1ccc(Cl)c(C#N)c1)C1CCCCC1 [Example 8, 2-chloro-5-(5-((cyclohexyl(propyl)amino)methyl)-1H-tetrazol-1-yl)benzonitrile]",0.35,2.1,1.5
"CC(C)CN(C)Cc1nnnn1-c1ccc(Cl)c(C#N)c1 [Example 9, 2-chloro-5-(5-((isobutyl(methyl)amino)methyl)-1H-tetrazol-1-yl)benzonitrile]",1.2,3.2,5.3
"N#Cc1cc(-n2nnnc2CN(CC2CC2)C2CCCCC2)ccc1Cl [Example 10, 2-chloro-5-(5-((cyclohexyl(cyclopropylmethyl)amino)methyl)-1H-tetrazol-1-yl)benzonitrile]",0.63,0.24,0.25
"CC(C)N(C)Cc1nnnn1-c1ccc(Cl)c(C#N)c1 [Example 11, 2-chloro-5-(5-((isopropyl(methyl)amino)methyl)-1H-tetrazol-1-yl)benzonitrile]",> 10,8.6,8.8
"CC(C)N(Cc1nnnn1-c1ccc(Cl)c(C#N)c1)C1CCCCC1 [Example 12, 2-chloro-5-(5-((cyclohexyl(isopropyl)amino)methyl)-1H-tetrazol-1-yl)benzonitrile]",1.7,11,7.9
"C=CCN(Cc1nnnn1-c1ccc(Cl)c(C#N)n1)C1CCCCC1 [Example 17, 6-(5-((allyl (cyclohexyl)amino)methyl)-1H-tetrazol-1-yl)-3-chloropicolinonitrile]",0.47,–,–
"CN(Cc1nnnn1-c1cc(C#N)cc([N+](=O)[O-])c1)C1CCCCC1 [Example 27, 3-(5-((cyclohexyl(methyl)amino)methyl)-1H-tetrazol-1-yl)-5-nitrobenzonitrile]",0.49,–,–
"CN(Cc1nnnn1-c1ccc(Cl)cc1C#N)C1CCCCC1 [Example 30, 5-chloro-2-(5-((cyclohexyl(methyl)amino)methyl)-1H-tetrazol-1-yl)benzonitrile]",> 10,–,–
"COc1ccc(-n2nnnc2CN(C)C2CCCCC2)cc1 [Example 31, N-((1-(4-methoxyphenyl)-1H-tetrazol-5-yl)methyl)-N-methylcyclohexanamine]",–,–,56
"CN(Cc1nnnn1-c1ccc([N+](=O)[O-])cc1)C1CCCCC1 [Example 32, N-methyl-N-((1-(4-nitrophenyl)-1H-tetrazol-5-yl)methyl)cyclohexanamine]",–,–,13
"COC(=O)c1cccc(-n2nnnc2CN(C)C2CCCCC2)c1 [Example 33, methyl 3-(5-((cyclohexyl(methyl)amino)methyl)-1H-tetrazol-1-yl)benzoate]",–,–,> 240
"CN(Cc1nnnn1-c1cccc(C(=O)O)c1)C1CCCCC1 [Example 34, 3-(5-((cyclohexyl (methyl)amino)methyl)-1H-tetrazol-1-yl)benzoic acid]",–,–,> 81
"Cc1cccc(-n2nnnc2CN(C)C2CCCCC2)c1 [Example 35, N-methyl-N-((1-(m-tolyl)-1H-tetrazol-5-yl)methyl)cyclohexanamine]",–,–,50

SMILES,EC50 (DGKα-YFP in Jurkat cells) [µM],IC50 [1] [µM],IC50 (Full length human DGKα) [µM]
"CN(Cc1nnnn1-c1cccc(Cl)c1)C1CCCCC1 [Example 36, N-((1-(3-chlorophenyl)-1H-tetrazol-5-yl)methyl)-N-methylcyclohexanamine]",–,–,11
"O=[N+]([O-])c1cccc(-n2nnnc2CN(CCO)C2CCCCC2)c1 [Example 43, 2-(cyclohexyl((1-(3-nitrophenyl)-1H-tetrazol-5-yl)methyl)amino)ethan-1-ol]",–,–,72
"CN(Cc1nnnn1-c1cccc(Br)c1)C1CCCCC1 [Example 45, N-((1-(3-bromophenyl)-1H-tetrazol-5-yl)methyl)-N-methylcyclohexanamine]",–,–,12
"CN(Cc1nnnn1-c1ccc(F)nc1)C1CCCCC1 [Example 46, N-((1-(6-fluoropyridin-3-yl)-1H-tetrazol-5-yl)methyl)-N-methylcyclohexanamine]",–,–,16
"CN(Cc1nnnn1-c1cc(C#N)c(=O)n(C)c1)C1CCCCC1 [Example 48, 5-(5-((cyclohexyl(methyl)amino)methyl)-1H-tetrazol-1-yl)-1-methyl-2-oxo-1,2-dihydropyridine-3-carbonitrile]",–,–,56
"CN(Cc1nnnn1-c1ccc(Cl)c(C(F)(F)F)c1)C1CCCCC1 [Example 49, N-((1-(4-chloro-3-(trifluoromethyl)phenyl)-1H-tetrazol-5-yl)methyl)-N-methylcyclohexanamine]",–,–,17
"CC1CCC(C)N1Cc1nnnn1-c1ccc(Cl)c(C#N)c1 (stereo not drawn) [Example 50, 2-chloro-5-(5-((2,5-dimethylpyrrolidin-1-yl)methyl)-1H-tetrazol-1-yl)benzonitrile]",–,–,54
"CCOC(=O)C1CCC(N(Cc2nnnn2-c2ccc(Cl)c(C#N)c2)C2CC2)CC1 (stereo not drawn) [Example 51, ethyl 4-(((1-(4-chloro-3-cyanophenyl)-1H-tetrazol-5-yl)methyl)(cyclopropyl)amino) cyclohexane-1-carboxylate]",–,–,13
"N#Cc1cc(-n2nnnc2CN(CC(O)c2ccccc2)C2CCCCC2)ccc1Cl (stereo not drawn) [Example 52, 2-chloro-5-(5-((cyclohexyl(2-hydroxy-2-phenylethyl)amino)methyl)-1H-tetrazol-1-yl)benzonitrile]",–,–,11
"CCCN(Cc1nnnn1-c1ccc(Cl)c(C#N)n1)C1CCCCC1 [Example 53, 3-chloro-6-(5-((cyclohexyl(propyl)amino)methyl)-1H-tetrazol-1-yl)picolinonitrile]",–,–,15
"N#Cc1nc(-n2nnnc2CN(CCCNC(=O)c2ccccc2)C2CCCCC2)ccc1Cl [Example 54, N-(3-(((1-(5-chloro-6-cyanopyridin-2-yl)-1H-tetrazol-5-yl)methyl)(cyclohexyl)amino)propyl)benzamide]",–,–,70
"CC(C)N(Cc1nnnn1-c1ccc(Cl)c(C#N)n1)C1CCCCC1 [Example 55, 3-chloro-6-(5-((cyclohexyl(isopropyl)amino)methyl)-1H-tetrazol-1-yl)picolinonitrile]",–,–,46
"CCOC(=O)C1CCC(N(Cc2nnnn2-c2ccc(Cl)c(C#N)n2)C2CC2)CC1 (stereo not drawn) [Example 56, ethyl 4-(((1-(5-chloro-6-cyanopyridin-2-yl)-1H-tetrazol-5-yl)methyl)(cyclopropyl)amino) cyclohexane-1-carboxylate]",–,–,11
"C[C@]1(O)CC[C@@H](N(Cc2nnnn2-c2ccc(Cl)c(C#N)n2)C2CC2)CC1 [Example 59, 3-chloro-6-(5-((cyclopropyl((1s,4s)-4-hydroxy-4-methylcyclohexyl)amino)methyl)-1H-tetrazol-1-yl)picolinonitrile]",–,–,180
"CC(C)N(C)Cc1nnnn1-c1ccc(Cl)c(C#N)n1 [Example 60, 3-chloro-6-(5-((isopropyl(methyl)amino)methyl)-1H-tetrazol-1-yl)picolinonitrile]",–,–,67
"CC(C)CN(C)Cc1nnnn1-c1ccc(Cl)c(C#N)n1 [Example 61, 3-chloro-6-(5-((isobutyl(methyl)amino)methyl)-1H-tetrazol-1-yl)picolinonitrile]",–,–,24
"N#Cc1nc(-n2nnnc2CN(CCO)C2CCCCC2)ccc1Cl [Example 62, 3-chloro-6-(5-((cyclohexyl(2-hydroxyethyl)amino)methyl)-1H-tetrazol-1-v) picolinonitrile]",–,–,110
"CCCCN(Cc1nnnn1-c1ccc(Cl)c(C#N)n1)C1CCCCC1 [Example 63, 6-(5-((butyl(cyclohexyl)amino)methyl)-1H-tetrazol-1-yl)-3-chloropicolinonitrile]",–,–,15
